These results are taken from paper PMC7823780 (Viruses, 2021).

Data set [1] can be described thus: Cytotoxicity assay, MTT, mock-infected Vero-76. As to conditions: Cercopithecus aethiops, mock-infected Vero-76 cells, mock-infected Vero-76, MTT; for CC50: value printed without *; for CC50 at 3 days: value marked *, after 3 * days. The class given is cell-based.
Data set [2] can be described thus: Cytotoxicity assay, MTT, mock-infected HeLa. As to conditions: human, mock-infected HeLa cells. Type of data set: cell-based.
Data set [3] in a line: Cytotoxicity assay, mock-infected LLC-MK2. The class given is cell-based. As to conditions: Macaca mulatta, mock-infected LLC-MK2 cells, mock-infected LLC-MK2, MTT.
A short description of data set [4]: Cytotoxicity assay, MTT, mock-infected BHK-21. Type of data set: cell-based. As to conditions: Syrian hamster, mock-infected BHK-21 cells; mock-infected BHK-21, MTT.
Data set [5] in a line: Cytotoxicity assay, MTT, mock-infected MDBK. The settings on record: bovine, mock-infected MDBK cells. Type of data set: cell-based.
The test system of data set [6] is CV-B3. Put plainly: Plaque reduction assay CV-B3. The class given is cell-based, human enterovirus B. As to conditions: Enterovirus B. Background: Plaque reduction counts the foci of infection that form in a cell layer.
Data set [7] deals with CV-B4. Put plainly: Plaque reduction assay CV-B4. The class given is cell-based, human enterovirus B. The settings on record: for EC50: Enterovirus B.
Data set [8] concerns CV-B5. Put plainly: Plaque reduction assay CV-B5. The class given is cell-based, human enterovirus B. The settings on record: Enterovirus B.
Data set [9] relates to PV-1. Put plainly: microbe, parasite or virus in culture. As to conditions: Enterovirus C, read-out: EC50 PV-1. The class given is cell-based.
Data set [10] has as its system EV-D68. The experiment in a line: Inhibition of EV-D68-induced cytopathogenicity in HeLa cells (MTT). The class given is cell-based, human enterovirus D 68 strain Fermon. As to conditions: for EC50: Enterovirus D, EVD68, m.o.i. 0.01.
Data set [11] deals with Echo9. Put plainly: Plaque reduction assay Echo9. As to conditions: Enterovirus B; 50% reduction of plaque number, LLC-MK2 cells. Type of data set: cell-based, human enterovirus B.
The mark [12] stands for this setting: CVB3, 50% reduction of plaque number, read-out: EC50 CV-B3.
The mark [13] stands for this setting: CVB4, 50% reduction of plaque number, read-out: EC50 CV-B4.
The mark [14] stands for this setting: CVB5, 50% reduction of plaque number, read-out: EC50 CV-B5.

Like-named read-outs stand apart in the source and are kept apart here. Some results are limits rather than exact numbers.

As a reminder, the CC50 is the concentration giving 50% cytotoxicity. A lower CC50 goes with harm at low concentration. Usually EC50 stands for the concentration needed to bring the measured effect to its halfway point. As for `CC(C)(C)c1ccc(-c2nc3cc(F)c(F)cc3[nH]2)cc1` [Compound 5b, 2-(4-(Tert-Butyl)phenyl)-5,6-Difluoro-1H-Benzo[d]imidazole], the CC50 in data set [1], in data set [4] and in data set [5] was over 100 µM throughout. Also, the CC50 at 4 days in data set [2] was over 100 µM. Further, the CC50 at 5 days in data set [3] is over 100 µM. The EC50 in data set [6] (setting [12]) was over 100 µM; in data set [7] (setting [13]) it was over 100 µM; in [8] (setting [14]) it was over 100 µM; in data set [9], 10 µM; in data set [10], 4 µM; in data set [11], over 100 µM.

For the compound `CC(C)(C)c1ccc(-c2nc3cc(Cl)c(Cl)cc3[nH]2)cc1` [Compound 3b, 2-(4-(Tert-Butyl)phenyl)-5,6-Dichloro-1H-Benzo[d]imidazole], the CC50 in [1] is 9 µM; in data set [4], 9 µM; in data set [5], 7 µM. In data set [2], the CC50 at 4 days is 6.4 µM. In data set [3], this compound yielded a CC50 at 5 days of 12 µM. The EC50 is over 9 µM in data set [6] (setting [12]); over 9 µM in data set [7] (setting [13]); 2 µM in data set [8] (setting [14]); over 6.4 µM in [10]; over 12 µM in data set [11].

In turn, `C[C@@]1(O)[C@H](O)[C@@H](CO)O[C@H]1n1ccc(N)nc1=O` [NM 107, 2′-C-methylcytidine, reference compound] gave a CC50 in data set [1] of over 100 µM. The results for the EC50 in data set [7] (setting [13]) and in [9] were 29 µM and 6 µM, respectively.

For `CC(C)c1ccc(-c2nc3cc(F)c(F)cc3[nH]2)cc1` [Compound 5a, 5,6-Difluoro-2-(4-Isopropylphenyl)-1H-Benzo[d]imidazole], the CC50 in [1], in data set [4] and in [5] was over 100 µM throughout. In data set [2], the CC50 at 4 days was over 100 µM. Further, the CC50 at 5 days in [3] amounted to 100 µM. The EC50 in [6] (setting [12]) was over 100 µM; in data set [7] (setting [13]), over 100 µM; in data set [8] (setting [14]), over 100 µM; in data set [9], 12 µM; in [10], over 100 µM; in [11], over 100 µM. For the same compound, in [10] (m.o.i. 0.01), the “EC50 EV-D68” value is listed as “not active”.

In turn, `Cc1cc(CCCOc2c(C)cc(-c3noc(C(F)(F)F)n3)cc2C)on1` [Plc, Pleconaril, reference compound] showed a CC50 in data set [1] of over 100 µM. In [3], this compound registered a CC50 at 5 days of over 100 µM. Also, the EC50 worked out at 2 ± 0.005 µM in data set [6] (setting [12]), 2 ± 0.5 µM in data set [8] (setting [14]), 0.3 µM in data set [10] and 0.1 µM in [11].

Regarding `CC(C)c1ccc(-c2nc3cc(F)ccc3[nH]2)cc1` [Compound 4a, 5-Fluoro-2-(4-Isopropylphenyl)-1H-Benzo[d]imidazole], the CC50 in data set [1], in data set [4] and in [5] was over 100 µM each time. The compound further registered a CC50 at 4 days in data set [2] of over 100 µM. This compound also registered a CC50 at 5 days in data set [3] of 29.5 µM. Besides, the EC50 is over 100 µM in data set [6] (setting [12]); over 100 µM in [7] (setting [13]); over 100 µM in [8] (setting [14]); at least 100 µM in data set [9]; over 100 µM in data set [10]; over 29.5 µM in [11].

In data set [1], `CC(C)c1ccc(-c2nc3ccccc3[nH]2)cc1` [Compound 1a, 2-(4-Isopropylphenyl)-1H-Benzo[d]imidazole] had a CC50 at 3 days of 24 µM. The CC50 in [1] turned out to be 60 µM; in data set [4], 36 µM; in data set [5], 65 µM. The CC50 at 4 days in [2] turned out to be 9 µM. Besides, the CC50 at 5 days in data set [3] worked out at 6 µM. Also, the EC50 in data set [6] (setting [12]) was over 60 µM; in data set [7] (setting [13]), over 60 µM; in data set [8] (setting [14]), over 60 µM; in [9], 11.5 µM; in [10] it was over 9 µM; in data set [11], over 6 µM.

In the case of `CC(C)c1ccc(-c2nc3cc(Cl)c(Cl)cc3[nH]2)cc1` [Compound 3a, 5,6-Dichloro-2-(4-Isopropylphenyl)-1H-Benzo[d]imidazole], the midpoint of cytotoxicity in data set [1], the CC50 at 3 days, lay at 8 µM. For the same compound, the half-maximal cytotoxic concentration (CC50) in [1] amounted to 25.5 µM; in [4] it was 8 µM; in [5], 2.5 µM. This compound also had a CC50 at 4 days in data set [2] of 8 µM. This compound also registered a half-maximal cytotoxic concentration (CC50) at 5 days in [3] of 7 µM. In addition, the EC50 in data set [6] (CVB3, read-out: EC50 CV-B3) is over 25.5 µM; in data set [7] (CVB4, read-out: EC50 CV-B4) it was over 25.5 µM; in data set [8] (CVB5, read-out: EC50 CV-B5) it was over 25.5 µM; in data set [9], over 25.5 µM; in [10] it was over 8 µM; in data set [11] it was over 7 µM.

Regarding `CC(C)c1ccc(-c2nc3cc(Cl)ccc3[nH]2)cc1` [Compound 2a, 5-Chloro-2-(4-Isopropylphenyl)-1H-Benzo[d]imidazole], the half-maximal cytotoxic concentration (CC50) in data set [1] was over 100 µM; in data set [4] it was over 100 µM; in [5], 80 µM. Moreover, the CC50 at 4 days in [2] was 100 µM. The compound also came in with a CC50 at 5 days in [3] of over 100 µM. The EC50 in data set [6] (setting [12]) is 17 µM; in data set [7] (setting [13]), at least 100 µM; in data set [8] (setting [14]), 10 µM; in data set [9], 9 µM; in data set [10] it was over 100 µM; in data set [11] it was 8 µM. Moreover, in [7] (50% reduction of plaque number), the “EC50 CV-B4” value is given as “No activity”.

In [1], `CC(C)(C)c1ccc(-c2nc3ccccc3[nH]2)cc1` [Compound 1b, 2-(4-(Tert-Butyl)phenyl)-1H-Benzo[d]imidazole] showed a CC50 at 3 days of 40 µM. The CC50 in data set [1] came out at 46 µM; in data set [4] it was 20 µM; in [5], 9 µM. For the same compound, in data set [2], it took 9 µM to reach half-maximal cytotoxicity (CC50 at 4 days). Also, the midpoint of cytotoxicity in [3], the CC50 at 5 days, lay at 6.5 µM. The half-maximal effective concentration (EC50) in data set [6] (setting [12]) is over 46 µM; in data set [7] (setting [13]), over 46 µM; in data set [8] (setting [14]) it was 7 µM; in data set [9], 9 µM; in data set [10], over 9 µM; in [11] it was over 6.5 µM.

Turning to `CCOC(=O)/C=C/[C@H](C[C@@H]1CCNC1=O)NC(=O)[C@@H](CC(=O)[C@@H](NC(=O)c1cc(C)on1)C(C)C)Cc1ccc(F)cc1` [Rup, Rupintrivir, reference compound], the half-maximal cytotoxic concentration (CC50) in [1] was over 100 µM. The EC50 in data set [9] worked out at 0.07 µM.

On to `CC(C)(C)c1ccc(-c2nc3cc(F)ccc3[nH]2)cc1` [Compound 4b, 2-(4-(Tert-Butyl)phenyl)-5-Fluoro-1H-Benzo[d]imidazole], for which the CC50 in [1], in data set [4] and in data set [5] was over 100 µM in each case. In addition, the cytotoxic concentration (CC50) at 4 days in data set [2] was over 100 µM. Besides, in data set [3], the CC50 at 5 days is over 100 µM. The EC50 is over 100 µM in data set [6] (setting [12]); over 100 µM in data set [7] (setting [13]); over 100 µM in [8] (setting [14]); 20 µM in data set [9]; over 100 µM in data set [10]; over 100 µM in data set [11].
